The values below come from PubChem BioAssay (NCI).

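Cells were grown in 96-well plates and exposed to each compound for 48 hours at five concentrations; endpoints were interpolated linearly between bracketing concentrations, or set to the highest concentration if not reached. Abbreviation: GI50, concentration required for 50% inhibition of growth. The concentration for full growth arrest is given as TGI.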 Bounds are passed on as bounds.

Among the test systems are TK-10 renal; HOP-92 NSCLC; LOX IMVI melanoma; SK-OV-3 ovarian; MDA-MB-231 breast; HCC-2998 colon; ACHN renal; M14 melanoma.
Test in all cases: NCI-60 cell line screen, 48 h

`O=C(CCSc1ccnc2c(C(F)(F)F)cccc12)N/N=C/c1cc(Cl)c(Cl)cc1Cl`: the GI50 in the assay on TK-10 renal was 33.6 µM; in the assay with HOP-92 NSCLC it was 16.3 µM; with LOX IMVI melanoma, 17.8 µM; in the assay with SK-OV-3 ovarian, 23.7 µM; in the assay on MDA-MB-231 breast it was 16.8 µM; in the assay with HCC-2998 colon, 34.6 µM. The GI50 with ACHN renal was 19.7 µM. For the same compound, the TGI with TK-10 renal is 72.4 µM; in the assay on HOP-92 NSCLC, 34.3 µM; in the assay with LOX IMVI melanoma, 31.8 µM; with SK-OV-3 ovarian it was 54.7 µM; with MDA-MB-231 breast it was 32.6 µM; in the assay with HCC-2998 colon, greater than 100 µM. Further, the TGI in the assay with ACHN renal stood at 35.5 µM.

Take `COc1ccc(-c2ccc(-c3ccc(C(=N)N)cn3)o2)cc1Cl`: the GI50 in the assay on TK-10 renal is 3.19 µM; in the assay on HOP-92 NSCLC it was 1.12 µM; in the assay on SK-OV-3 ovarian, 10.6 µM; with M14 melanoma it was 1.67 µM; with MDA-MB-231 breast it was 1.81 µM; in the assay on HCC-2998 colon, 1.88 µM. Moreover, the GI50 with ACHN renal is 1.69 µM. The TGI in the assay with TK-10 renal turned out to be 9.47 µM; in the assay with HOP-92 NSCLC, 2.44 µM; in the assay on SK-OV-3 ovarian, 22.8 µM; in the assay with M14 melanoma, 3.19 µM; in the assay on MDA-MB-231 breast it was 3.41 µM; in the assay with HCC-2998 colon it was 3.38 µM. In the assay with ACHN renal, this compound came in with a TGI of 3.1 µM.

`CCCCCCCCCCCCCCCCCCOc1ccccc1CC(=O)NCC[N+](C)(C)C`: the GI50 in the assay with TK-10 renal was 2.27 µM; in the assay on HOP-92 NSCLC, 1.92 µM; with SK-OV-3 ovarian, 15.4 µM; in the assay with M14 melanoma, 3.14 µM; in the assay with MDA-MB-231 breast, 4.27 µM; in the assay on HCC-2998 colon, 3.15 µM. In addition, the GI50 in the assay on ACHN renal is 12.9 µM. For the same compound, the TGI in the assay with TK-10 renal is 6.48 µM; in the assay on HOP-92 NSCLC, 7.16 µM; in the assay on SK-OV-3 ovarian it was 35.7 µM; in the assay on M14 melanoma, greater than 100 µM; in the assay with MDA-MB-231 breast it was 66.6 µM; in the assay with HCC-2998 colon, 21.9 µM. The compound further gave a TGI in the assay with ACHN renal of 49.2 µM.

For the compound `C=C(CNC(=O)c1ccccc1)c1ccc(C(=O)Nc2ccccc2N)cc1`, the GI50 is 2.12 µM with TK-10 renal; 1.15 µM in the assay with HOP-92 NSCLC; 6.1 µM in the assay on LOX IMVI melanoma; greater than 100 µM in the assay with SK-OV-3 ovarian; 5.56 µM in the assay on MDA-MB-231 breast; 9.3 µM with HCC-2998 colon. Besides, the GI50 in the assay with ACHN renal is 3.86 µM. The TGI with TK-10 renal was 13.6 µM; in the assay with HOP-92 NSCLC, greater than 100 µM; in the assay on LOX IMVI melanoma, 73.2 µM; with SK-OV-3 ovarian, greater than 100 µM; in the assay on MDA-MB-231 breast, 45.1 µM; in the assay with HCC-2998 colon, greater than 100 µM. This compound came in with a TGI in the assay with ACHN renal greater than 100 µM.

Turning to `FC(F)(F)c1cccc2c(SCCc3n[nH]c(=S)o3)ccnc12`, the GI50 in the assay on TK-10 renal was 66.6 µM; with HOP-92 NSCLC it was 28.4 µM; in the assay on LOX IMVI melanoma, 67 µM; in the assay with SK-OV-3 ovarian, 92.7 µM; in the assay with MDA-MB-231 breast, 43.1 µM; in the assay on HCC-2998 colon, 37.9 µM. For the same compound, in the assay with ACHN renal, the GI50 was 60.2 µM. The TGI with TK-10 renal was greater than 100 µM; in the assay on HOP-92 NSCLC, 81.6 µM; in the assay on LOX IMVI melanoma, greater than 100 µM; in the assay with SK-OV-3 ovarian, greater than 100 µM; in the assay with MDA-MB-231 breast, greater than 100 µM; in the assay with HCC-2998 colon, greater than 100 µM. The compound further came in with a TGI with ACHN renal greater than 100 µM.

On to `CNC1=C(C(=O)OC)SC(c2ccccc2)(c2ccccc2)SC1`, for which the GI50 is 25.3 µM in the assay on TK-10 renal; 20.7 µM with HOP-92 NSCLC; 21.2 µM with LOX IMVI melanoma; 71.1 µM with SK-OV-3 ovarian; 7.12 µM with M14 melanoma; 45.8 µM with MDA-MB-231 breast. Further, the GI50 in the assay with HCC-2998 colon is 13.1 µM. Also, the TGI was greater than 100 µM with TK-10 renal; greater than 100 µM in the assay with HOP-92 NSCLC; greater than 100 µM with LOX IMVI melanoma; greater than 100 µM in the assay on SK-OV-3 ovarian; 67.7 µM in the assay on M14 melanoma; greater than 100 µM in the assay with MDA-MB-231 breast. The same compound came in with a TGI in the assay with HCC-2998 colon greater than 100 µM.

For the compound `COc1ccc2c(c1)c(-c1ccc(-c3cn(C)c4ccc(OC)cc34)[nH]1)cn2C`, the GI50 is 3.56 µM with TK-10 renal; 2.58 µM in the assay with HOP-92 NSCLC; 2.03 µM in the assay with LOX IMVI melanoma; 3.19 µM in the assay with SK-OV-3 ovarian; 3.97 µM in the assay on M14 melanoma; 1.91 µM in the assay with ACHN renal. The TGI in the assay on TK-10 renal was 10.7 µM; in the assay on HOP-92 NSCLC it was 7.21 µM; in the assay with LOX IMVI melanoma, 4.39 µM; in the assay on SK-OV-3 ovarian, 20.9 µM; in the assay on M14 melanoma it was 20.3 µM; with ACHN renal it was 3.54 µM.

Consider `OCC(CCc1c[nH]c2ccccc12)c1c[nH]c2ccccc12` (stereo not drawn), for which the TGI in the assay with TK-10 renal was 37.8 µM; in the assay on HOP-92 NSCLC, 32.7 µM; in the assay with LOX IMVI melanoma, 27.3 µM; in the assay with SK-OV-3 ovarian, 98.5 µM; with M14 melanoma it was 28.6 µM; in the assay on MDA-MB-231 breast, 27.6 µM. This compound displayed a TGI with ACHN renal of 45.1 µM.

As for `O=c1oc2c3ccc4cnccc4c3[nH]c2c2ccccc12`, the GI50 is 43.8 µM in the assay on TK-10 renal; 10.2 µM with HOP-92 NSCLC; 12.1 µM with LOX IMVI melanoma; greater than 100 µM in the assay on SK-OV-3 ovarian; 13.4 µM with M14 melanoma; 16.9 µM in the assay on MDA-MB-231 breast. In the assay on ACHN renal, the GI50 is 31.5 µM. In addition, the TGI is greater than 100 µM in the assay with TK-10 renal; 35 µM in the assay with HOP-92 NSCLC; 28.2 µM with LOX IMVI melanoma; greater than 100 µM in the assay with SK-OV-3 ovarian; 26.6 µM in the assay with M14 melanoma; 38.5 µM in the assay on MDA-MB-231 breast. The compound also yielded a TGI with ACHN renal greater than 100 µM.

On to `c1ccc(B2OCC(C3OB(c4ccccc4)OC4COB(c5ccccc5)OC43)O2)cc1` (stereo not drawn), for which the TGI with TK-10 renal, in the assay with HOP-92 NSCLC, with LOX IMVI melanoma, in the assay on SK-OV-3 ovarian, in the assay on M14 melanoma and with MDA-MB-231 breast was greater than 100 µM throughout. In addition, the TGI in the assay on ACHN renal is greater than 100 µM.

For `C=C1C(OC/C=C/COC2O[C@@H]3O[C@@]4(C)CC[C@H]5[C@H](C)CC[C@@H](C2=C)[C@@]35OO4)O[C@@H]2O[C@@]3(C)CC[C@H]4[C@H](C)CC[C@@H]1[C@@]24OO3` (stereo partly drawn), the GI50 was 0.492 µM with TK-10 renal; 1.14 µM in the assay with HOP-92 NSCLC; 0.14 µM with LOX IMVI melanoma; 51.3 µM with SK-OV-3 ovarian; 10.7 µM in the assay on M14 melanoma; 11.4 µM in the assay on MDA-MB-231 breast. Further, in the assay with ACHN renal, the GI50 is 1.72 µM. For the same compound, the TGI with TK-10 renal was 16.9 µM; with HOP-92 NSCLC, 36.3 µM; in the assay on LOX IMVI melanoma, 2.09 µM; in the assay on SK-OV-3 ovarian, greater than 100 µM; in the assay on M14 melanoma, 27.5 µM; in the assay on MDA-MB-231 breast, 51.3 µM. Besides, the TGI in the assay on ACHN renal turned out to be 17.3 µM.
